Experimental data from PubChem BioAssay (NCI).
Where “and” joins values, the source holds several entries; their conditions need not be identical. Equal values may be shown once.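 Where inhibition never reached the appropriate level, the endpoint shown equals the highest concentration tested. Otherwise, values were interpolated linearly from a five-concentration, 48-hour dose response in 96-well plates. GI50 = concentration required for 50% inhibition of growth. TGI marks complete inhibition of growth.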

Assays:
Assay in all cases: NCI anticancer screen, dose series, 48 h
SK-MEL-5 melanoma = test system: SK-MEL-5 melanoma
SK-MEL-28 melanoma = test system: SK-MEL-28 melanoma
UO-31 renal = test system: UO-31 renal
CCRF-CEM leukemia = test system: CCRF-CEM leukemia
U251 CNS = test system: U251 CNS
NCI-H226 lung = test system: NCI-H226 lung
EKVX NSCLC = test system: EKVX NSCLC
BT-549 breast = test system: BT-549 breast
OVCAR-4 ovarian = test system: OVCAR-4 ovarian
KM12 colon = test system: KM12 colon

Compound	GI50 (SK-MEL-5 melanoma)	TGI (SK-MEL-5 melanoma)	GI50 (SK-MEL-28 melanoma)	TGI (SK-MEL-28 melanoma)	GI50 (UO-31 renal)	TGI (UO-31 renal)	GI50 (CCRF-CEM leukemia)	TGI (CCRF-CEM leukemia)	GI50 (U251 CNS)	TGI (U251 CNS)	GI50 (NCI-H226 lung)	TGI (NCI-H226 lung)	GI50 (EKVX NSCLC)	TGI (EKVX NSCLC)	GI50 (BT-549 breast)	TGI (BT-549 breast)	GI50 (OVCAR-4 ovarian)	TGI (OVCAR-4 ovarian)	GI50 (KM12 colon)	TGI (KM12 colon)
CNC(=O)n1ccc2cc(Oc3ccnc(NC(=O)c4ccc(C5CCN(CCO)CC5)cc4)c3)c(OCCOC)cc21	1.96 µM	3.86 µM	6.33 µM	19.2 µM	16.5 µM	33.2 µM	2.8 µM	> 100 µM	3.15 µM	12.3 µM	12.1 µM	31.3 µM	14.7 µM	29.3 µM	2.35 µM	14.2 µM	1.99 µM	5.78 µM	10.4 µM	24.5 µM
COc1c(CCC[P+](c2ccccc2)(c2ccccc2)c2ccccc2)cc2c(c1OC)OCO2	1.33 µM	2.81 µM	0.769 µM	14.8 µM	11.9 µM	47.2 µM	1.7 µM	> 100 µM	1.77 µM	19.7 µM	3.3 µM	42.2 µM	3.88 µM	51.1 µM	1.24 µM	15 µM	1.59 µM	12.5 µM	0.643 µM	7.48 µM
CN(C)S(=O)(=O)c1ccc(NC(=O)COC(=O)c2ccc(S(=O)(=O)N3CCCCC3)cc2)cc1	> 100 µM	> 100 µM	> 100 µM	> 100 µM	> 100 µM	> 100 µM	> 100 µM	> 100 µM	> 100 µM	> 100 µM	> 100 µM	> 100 µM	> 100 µM	> 100 µM	> 100 µM	> 100 µM	> 100 µM	> 100 µM	> 100 µM	> 100 µM
CCCCOc1ccc(NC(N)=Nc2ccc(Cl)cc2)cc1		2.1 µM		26.7 µM		9.6 µM		> 35.7 µM		21.5 µM		29 µM		14.7 µM		23.4 µM		17.5 µM		26.1 µM
N#Cc1cnc2cc(OC[C@H](O)CO)c(NC(=O)CC3CSSC3)cc2c1Nc1ccc(OCc2cccc(F)c2)c(Cl)c1	0.841 µM	1.59 µM	0.126 µM	0.319 µM	2.11 µM	7.75 µM	0.0923 µM	0.251 µM	0.465 µM	1.33 µM	0.335 µM	1.49 µM	0.696 µM	1.67 µM	0.133 µM	0.43 µM	0.619 µM	1.57 µM	0.155 µM	0.45 µM
C=C1C(=O)O[C@H]2[C@H]1CC/C(COC(=O)NCc1ccccc1OC)=C\CC[C@@]1(C)O[C@@H]21	2.86 µM	8.03 µM	1.52 µM	3.61 µM	1.68 µM	3.18 µM	0.482 µM	4.7 µM	2.2 µM	6.85 µM	2.11 µM	4.96 µM	1.98 µM	6.39 µM	1.25 µM	2.55 µM	1.78 µM	4.92 µM	3.53 µM	13.6 µM
COc1cccc(/C=C/C(=O)c2cccc(Nc3nc(Nc4ccccc4)nc(Nc4ccccc4)n3)c2)c1	13 µM	> 77.1 µM	20.8 µM	56.2 µM	7.36 µM	57.5 µM	5.26 µM	45.5 µM	9.5 µM	> 73.8 µM	24.2 µM	> 67.9 µM	> 20.2 µM	> 78.6 µM	21.7 µM	> 72.1 µM	19.5 µM	> 100 µM	3.88 µM	18.3 µM
O=C(c1ccc(F)cc1)c1cccc(C(=O)c2ccc(F)cc2)n1		> 79.2 µM		> 100 µM		66.6 µM		> 100 µM		44.5 µM		> 78 µM		> 100 µM		18.5 µM		> 100 µM		> 100 µM
COc1cc(C2c3cc4c(cc3OC(N3CCCC3)C2C)OCO4)cc(OC)c1OC (stereo not drawn)		5.06 µM		> 100 µM		41.2 µM		> 51.9 µM		13.2 µM		3.19 µM		> 95.5 µM		11.5 µM		80.1 µM		3.68 µM
Nc1cc2cccc[n+]2c2cc(Cl)ccc12	10.4 µM	23.2 µM	14.9 µM	37.3 µM	43.6 µM		3.23 µM	35.3 µM	4.56 µM	25.4 µM	13.5 µM	59.5 µM	34 µM		7.24 µM	25.2 µM	8.44 µM	38.9 µM	7.89 µM	53.2 µM
O=C(c1ccccc1)C1N=NCC1c1ccc([N+](=O)[O-])cc1 (stereo not drawn)		59.6 µM		> 100 µM		> 100 µM		> 100 µM		> 100 µM		> 100 µM		> 100 µM		65.8 µM		> 100 µM		> 100 µM
CCN(CC)CCn1ccc(=O)c2cc3c(=O)ccn(CCN(CC)CC)c3c(C)c21		29.1 µM		35.1 µM		17.1 µM		29.6 µM		19.7 µM		23.8 µM		18.8 µM		29.2 µM		9.43 µM		2.61 µM
C[C@@H](C(=O)Nc1ccc(Cl)cc1)C1CCC(c2ccnc3ccc(F)cc23)CC1 (stereo partly drawn)	3.22 µM	11.8 µM	10.4 µM	> 100 µM	3.94 µM	> 100 µM	3.43 µM	> 100 µM	20 µM	> 100 µM	13.7 µM	> 100 µM	4.54 µM	61.6 µM	3.72 µM	22.8 µM	5.93 µM	> 100 µM	6.01 µM	34.9 µM
CC(C)NC[C@@H](C(=O)N1CCN(c2ncnc3c2[C@H](C)C[C@H]3O)CC1)c1ccc(Cl)cc1	> 10 µM and 27.8 µM	> 100 µM	> 10 µM and 36.6 µM	> 100 µM	6.57 µM and 16.2 µM	> 87.3 µM	1.57 µM and 1.24 µM	> 100 µM	0.958 µM and 0.683 µM	> 100 µM	5.16 µM and 13.3 µM	> 100 µM	> 10 µM	> 10 µM	0.752 µM and 1.59 µM	> 10 µM and 56.2 µM	> 74 µM	> 100 µM	0.891 µM and 1.43 µM	> 91.9 µM
